Data reported in patent publication US11986513B2, “GAL(1-15) and analogues thereof for use in the prevention and/or treatment of alcohol-related effects and disorders” (UNIVERSIDAD DE MÁLAGA, priority 2017, dated 2024).
Read-outs that look alike come from different tables or passages of the source. One block for each molecule: values may come before it.

How the values were obtained:
[1] = tested on: rats; test: Locomotor activity (open field), ethanol-reduced locomotion; assay type: in vivo, rat
Method: In this experiment, the effects of GAL(1-15) (3 nmol) on ethanol-reduced locomotion (1.75 g/kg; intraperitoneal (i.p.)) (Vallof et al., 2016) were investigated. Locomotor activity was recorded in rat open field (100×100×50 cm) where animals were individually placed and left to freely explore. Their behaviour was recorded over a 30-minute period by ceiling-mounted video camera, and locomotor activity was analysed using the video-tracking software EthovisionXT. After each assay, all surfaces were cleaned with a paper towel and 70% ethanol solution. For locomotor activity, total distance travelled (cm) and mean speed (cm/s) were recorded. Groups of rats were administered via i.c.v. GAL(1-15) or vehicle 20 minutes before the test; i.p. ethanol (1.75 g/kg) or saline solution administration was performed 5 minutes before the test.

[2] = tested on: hepatic cytosolic alcohol dehydrogenase (ADH)
Method: The activity of hepatic cytosolic alcohol dehydrogenase (ADH) in the rats from the two-bottle choice test was analysed. ADH activity has a good correlation with ethanol elimination rates in vivo (Lumeng et al., 1979) and chronic ethanol administration causes an increase in ADH activity (Buris et al., 1985).
The livers were removed 2 hours after i.c.v. injections and frozen in solid CO2 until use. Determination of ADH activity was performed in homogenized liver tissue in a TrisHCl solution (10 mM, pH=8.8; 0.5 mM dithiothreitol) centrifuged at 12.000 g for 10 minutes. ADH activity was evaluated using a microassay adapted to Cobas Mira analyser according to Shephard and colleagues (Shephard et al., 1987). Briefly, 300 μl of NAD solution (2.9 mM in 0.1 M Glycine/NaOH: p=10) was added to 30 μl of sample. The first optical reading was recorded before the addition of 20 μl of 17 mM ethanol, and then the rate of change in absorption of the NADH chromogen was recorded at 340 nm over time on the Cobas Mira analyser at 37° C. One activity unit was defined as the reduction of […] NAD to NADH/min at 37° C.

[3] = tested on: GALR2; conditions: for GALR2 mRNA expression in the corpus striatum: naive rats, mean ± SEM
Method: (§1) The method to perform RNA isolation and RT-PCR was described previously (Millon et al., 2015). Total RNA was isolated from the corpus striatum using RNeasy Lipid Tissue kit (Qiagen, Hilden, Germany). cDNA was obtained using a Reverse Transcriptase Core kit (Eurogentec, Seraing, Belgium). These steps were performed according to the manufacturer's instructions.
(§2) All PCR analyses were performed in triplicate using Power SYBR Green PCR Master Mix (Applied Biosystems, Foster City, USA) in the 7500 RT-PCR system (Applied Biosystems, Foster City, USA). The primer sequences used in this study are:
(§3) The data was analysed using the comparative Ct method and normalised to measurements of glyceraldehyde-3-phosphate dehydrogenase (GAPDH) mRNA.
(§4) Groups of naïve rats were injected i.p. with ethanol at 4 g/kg (Bilbao et al., 2016), dissolved in a 0.9% sterile saline solution (w/v), and 0, 2, and 4 hours after the injection the brains were extracted after a rapid decapitation. The corpus striatum was quickly extracted from all the animals and frozen immediately on solid CO2 until use. The method to perform RNA isolation and RT-PCR was described previously.

[4] = tested on: GALR1; conditions: for GALR1 mRNA expression in the corpus striatum: naive rats, mean ± SEM
Method: as §1, §2, §3, §4

[5] = tested on: rats; test: Ethanol self-administration (operant model); assay type: in vivo, rat
Method: The use of operant models as substance self-administration models are widely used for performing motivation or hedonic studies. In these models, the animal has to “work” to obtain the reinforcing substance by pressing a lever, which allows the investigator to observe the animal's interest in the substance, as well as to learn the effect of the substance as a reward for the animal (Leeman et al., 2010). The method is performed according to earlier protocols (Alén et al., 2009) with some modifications. The test consists of a two-week training phase in which rats are kept the first 2 to 4 days with a water restriction to facilitate the learning of the task of pressing the lever to obtain the reinforcement. Animals are exposed daily to 30-minute sessions in self-administration boxes (Letica instruments). The boxes are equipped with two retractable levers located on both sides of a liquid dispenser (0.1 mL) positioned in the centre of the box panel. […] Once the training period is over, where all the animals have proven to have learned the task, daily sessions continue to be performed until establishing a stable baseline. Then training begins for ethanol consumption, and for this purpose a gradual increase in ethanol concentration (from 2% to 10%) is performed at the same time as a gradual reduction in saccharin concentration (from 0.16% to 0%) over several days, where after this period the animals become accustomed consuming 10% ethanol. After several sessions to establish a stable baseline, the animals are subjected to placement of a chronic intracerebroventricular cannula, leaving them for several days after this intervention to again establish a stable ethanol consumption baseline. Then the test is performed, consisting of a 30-minute session after administration of the different treatments, recording the number of active lever presses, as well as the number of rewards (FIG. 7).
Two sets of ethanol self-administration experiments were performed. In the first set of experiments, a dose-response curve of GAL(1-15) was performed. For this, groups of rats received i.c.v. GAL(1-15) at doses of 0.3, 1, and 3 nmol, or vehicle. In the second set of experiments, the effect of GAL 3 nmol and GAL(1-15) 3 nmol in ethanol self-administration were compared.

[6] = tested on: GALR2; test: GALR2 mRNA expression in the corpus striatum during voluntary ethanol consumption (RT-PCR); assay type: in vivo, rat; conditions: 3 nmol i.c.v., 2 hours after administration, two-bottle choice rats, versus vehicle/EtOH (p=0.101)
Method: (§5) Groups of rats from the two-bottle choice paradigm were killed by decapitation 2 hours after a single i.c.v. administration of 3 nmol of GAL(1-15) or vehicle, and the corpus striatum was dissected and frozen on solid CO2 until mRNA expression analysis.

[7] = tested on: rats; test: Two-bottle choice test for voluntary ethanol consumption and preference; assay type: in vivo, rat; conditions: for preference for ethanol compared with GAL / ethanol intake compared with GAL: 3 nmol i.c.v. each
Method: Male Sprague—Dawley rats (body weight 225-250 g, age 8 weeks) were obtained from Criffa and maintained in a humidity-controlled and temperature-controlled (20-22° C.) room. The rats in the two-bottle choice paradigm were during the entire protocol maintained on a 12-hour reversed light/dark cycle (lights off at 10 am) whereas the other rats were kept on 12-hour light/dark cycle. The animals had free access to food pellets and tap water. All animal experimentation was conducted in accordance with the University of Malaga Guidelines for the Care and Use of Laboratory Animals.
This protocol has been used previously (Diaz-Cabiale et al., 2011; Millon et al., 2015). Briefly, the rats were anaesthetised intraperitoneally with Equitesin (3.3 ml/kg body weight) and stereotaxically implanted with a unilateral chronic 22-gauge stainless steel guide cannula into the right lateral cerebral ventricle using the following coordinates: 1.4 mm lateral and 1 mm posterior to bregma and 3.6 mm below the surface of the skull (Paxinos, 1986). After surgery, animals were individually housed and allowed a recovery period of 7 days. The injections in the lateral ventricle were performed using a 26-gauge stainless steel injection cannula connected via PE-10 tubing to a Hamilton syringe. The total volume was 5 μl per injection, and the infusion time was 1 minute.
The solutions were prepared freshly, and the peptides were dissolved in artificial cerebrospinal fluid (with a composition of […], […] NaH2CO3, […] KCl, 0.5 nM KH2PO4, 1.2 nM CaCl2, 1.8 nM MgCl2, 0.5 nM Na2SO4, and 5.8 nM D-glucose, pH 7.4). GAL was obtained from NeoMPS, Strasbourg, France; GAL(1-15) and the GALR2 receptor antagonist M871 were obtained from Tocris Bioscience, Bristol, UK.
The two-bottle choice test was used to determine the voluntary ethanol consumption of rats as described previously (Castilla-Ortega et al., 2016). Briefly, after 7 days of water consumption (both bottles), a choice between water and increasing concentrations of ethanol [3, 6, and 10% (v/v)] was offered for 7 days each. A choice between 10% ethanol (v/v) and water was offered for several days until reaching a stable baseline value. Water and ethanol consumption were recorded daily. The position of the bottles was changed every day to avoid preference for location. Water intake (g/kg), ethanol intake (g/kg), and preference ([ethanol consumption/total fluid [water plus ethanol] consumption×100]) were calculated for each animal. Throughout the experiment, evaporation and spillage estimates were calculated using an empty cage with two bottles, one containing water and the other containing the appropriate ethanol solution. In the experiments, a choice between ethanol (10%) and water was offered.
Three sets of experiments were conducted in the two bottle choice paradigm. In the first set of experiments, a dose-response curve of GAL(1-15) was performed. For this, groups of rats received i.c.v. 1 nmol or 3 nmol of GAL(1-15), or vehicle 2, 14, and 24 hours before the measurements. In the second set of experiments, the effects of the two-bottle choice test for GAL and GAL(1-15) were compared. For this, groups of rats received i.c.v. 3 nmol of GAL, 3 nmol of GAL(1-15), or vehicle, 2, 14, and 24 hours before the test. In the last set of experiments, the role of GALR2 was studied; for this, groups of rats received i.c.v. 3 nmol of GAL(1-15) combined with 3 nmol of GALR2 […] before the measurements.

[8] = tested on: Rab5; test: Rab5 mRNA expression in the corpus striatum during voluntary ethanol consumption (RT-PCR); assay type: in vivo, rat; conditions: 3 nmol i.c.v., 2 hours after administration, two-bottle choice rats, versus vehicle/EtOH
Method: as §5

[9] = tested on: C-Fos; test: C-Fos mRNA expression in the corpus striatum during voluntary ethanol consumption (RT-PCR); assay type: in vivo, rat; conditions: 3 nmol i.c.v., 2 hours after administration, two-bottle choice rats, versus vehicle/EtOH
Method: as §5

[10] = tested on: GALR1; test: GALR1 mRNA expression in the corpus striatum during voluntary ethanol consumption (RT-PCR); assay type: in vivo, rat; conditions: 3 nmol i.c.v., 2 hours after administration, two-bottle choice rats, versus vehicle/EtOH
Method: as §5

[11] = ethanol 1.75 g/kg i.p., five minutes after administration, open field
[12] = 0 hours after i.p. injection of EtOH (4 g/kg)
[13] = 2 hours after i.p. injection of EtOH (4 g/kg)
[14] = 4 hours after i.p. injection of EtOH (4 g/kg)
[15] = 3 nmol i.c.v. each, 2, 14, 24 hours
[16] = i.c.v., any dose (1 or 3 nmol), any time point

- ADH activity compared with the baseline group ([2]; voluntary ethanol intake through the two-bottle choice test protocol): significant increase
Molecule: CCO [EtOH, ethanol]
- distance travelled [1, 11]: reduced
- mean speed [1, 11]: reduced
- ADH activity (liver) ([2]; voluntary ethanol intake in two-bottle choice test, i.c.v. cerebrospinal fluid vehicle, mean ± SEM): 313.1 ± 10.6 protein IU/g
- GALR2 mRNA expression in the corpus striatum [3, 12]: 1.21 ± 0.1
- GALR2 mRNA expression in the corpus striatum [3, 13]: 1.23 ± 0.1
- GALR2 mRNA expression in the corpus striatum [3, 14]: 1.44 ± 0.1
- effect on GALR2 mRNA levels in the corpus striatum ([3]; single injection of ethanol 4 g/kg i.p., any time point): No effects were observed
- GALR1 mRNA expression in the corpus striatum [4, 12]: 0.87 ± 0.2
- GALR1 mRNA expression in the corpus striatum [4, 13]: 0.60 ± 0.1
- GALR1 mRNA expression in the corpus striatum [4, 14]: 0.47 ± 0.1
- effect on GALR1 expression in the corpus striatum ([4]; single injection of ethanol 4 g/kg i.p., at 2 and 4 hours): no effect

Molecule: Gly-Trp-Thr-Leu-Asn-Ser-Ala-Gly-Tyr-Leu-Leu-Gly-Pro-His-Ala (GWTLNSAGYLLGPHA; General formula for GAL 1-15) [GAL(1-15)]
- number of reinforcements in ethanol self-administration ([5]; 0.3 nmol i.c.v. 15 min before the test): no effect
- number of ethanol reinforcements ([5]; 1 nmol i.c.v. 15 min before the test, versus control): significant decrease
- number of ethanol reinforcements (reduction) ([5]; 3 nmol i.c.v. 15 min before the test, versus control): even more pronounced
- number of ethanol reinforcements compared with GAL ([5]; 3 nmol i.c.v. each, 15 min before the test): significantly reduces
- GALR2 expression in corpus striatum [6]: slight reduction
- preference for ethanol ([7]; 1 nmol i.c.v.): no effects
- ethanol intake ([7]; 1 nmol i.c.v., all the time points analysed (2, 14, 24 hours)): no effect
- food intake, difference between GAL and GAL(1-15) [7, 15]: No differences were found
- water intake, difference between GAL and GAL(1-15) [7, 15]: No differences were found
- preference for ethanol compared with GAL ([7]; 2 hours after administration): decreased
- ethanol intake compared with GAL ([7]; 2 hours after injection): significantly decreased
- ethanol intake compared with GAL ([7]; 14 hours after injection): significantly decreased
- ethanol intake compared with GAL ([7]; 24 hours after injection): significantly decreased
- preference for ethanol compared with GAL ([7]; 24 hours later): maintained
- decrease in the preference for ethanol ([7]; 3 nmol i.c.v., 2 hours after administration): 90%
- ethanol intake ([7]; 3 nmol i.c.v., 2 hours after administration, 10% ethanol vs water, versus vehicle): significantly decreased
- ethanol intake ([7]; 3 nmol i.c.v., 14 hours after administration, 10% ethanol vs water, versus vehicle): significantly decreased
- preference for ethanol (decrease) ([7]; 3 nmol i.c.v., 24 hours): maintained
- ethanol intake ([7]; 3 nmol i.c.v., 24 hours after administration, 10% ethanol vs water, versus vehicle): significantly decreased
- food intake [7, 16]: no differences were found
- water intake [7, 16]: no differences were found
- mRNA levels of Rab5 in corpus striatum [8]: significant increase
- distance travelled ([1]; GAL(1-15) 3 nmol i.c.v. 20 min before test, rats given i.p. ethanol 1.75 g/kg): decreased
- distance travelled ([1]; GAL(1-15) 3 nmol i.c.v. 20 min before test, rats given systemic saline solution): no such effects were observed
- mean speed ([1]; GAL(1-15) 3 nmol i.c.v. 20 min before test, rats systemically treated with ethanol 1.75 g/kg): decreased
- mRNA levels of C-Fos in corpus striatum [9]: significant increase
- GALR1 mRNA levels in corpus striatum [10]: significant decrease
